From patent publication US6737383B1, “Herbicidal oxadiazolidines” (priority 1999, dated 2004)

How the values were obtained:
blackgrass = test: Test B pre/postemergence blackgrass; format: in vivo, Alopecurus myosuroides
How it was run: (§1)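 Test chemicals in a non-phytotoxic solvent mixture with surfactant were sprayed preemergence onto planted seeds and postemergence onto plants 2 to 18 cm tall (1- to 4-leaf stage). After twelve to sixteen days in a greenhouse, injury was visually rated against untreated controls from 0 (no effect) to 10 (complete control).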

wild oat = test: Test B pre/postemergence wild oat; format: in vivo, Avena fatua
How it was run: as §1

bedstraw = test: Test B pre/postemergence bedstraw; format: in vivo, Galium aparine
How it was run: as §1

soybean = test: Test B pre/postemergence soybean; format: in vivo, Glycine max
How it was run: as §1

crabgrass = test: Test B pre/postemergence crabgrass; format: in vivo, Digitaria sanguinalis
How it was run: as §1

cocklebur = test: Test B pre/postemergence cocklebur; format: in vivo, Xanthium strumarium
How it was run: as §1

corn = test: Test B pre/postemergence corn; format: in vivo, Zea mays
How it was run: as §1

purple nutsedge = test: Test B pre/postemergence purple nutsedge; format: in vivo, Cyperus rotundus
How it was run: as §1

velvetleaf = test: Test B pre/postemergence velvetleaf; format: in vivo, Abutilon theophrasti
How it was run: as §1

surinam grass = test: Test B pre/postemergence surinam grass; format: in vivo, Brachiaria decumbens
How it was run: as §1

wheat = test: Test B pre/postemergence wheat; format: in vivo, Triticum aestivum
How it was run: as §1

morningglory = test: Test B pre/postemergence morningglory; format: in vivo, Ipomoea hederacea
How it was run: as §1

giant foxtail = test: Test B pre/postemergence giant foxtail; format: in vivo, Setaria faberii
How it was run: as §1

sugar beet = test: Test B pre/postemergence sugar beet; format: in vivo, Beta vulgaris
How it was run: as §1

pigweed = test: Test B pre/postemergence pigweed; format: in vivo, Amaranthus retroflexus
How it was run: as §1

rape = test: Test B pre/postemergence rape; format: in vivo, Brassica napus
How it was run: as §1

[1] = Postemergence, Rate 62 g/ha, scale of 0 to 10, 0 is no effect, 10 is complete control
[2] = Postemergence, Rate 125 g/ha, scale 0 to 10, 0 is no effect, 10 is complete control
[3] = Postemergence, Rate 500 g/ha, scale 0 to 10, 0 is no effect, 10 is complete control
[4] = Preemergence, Rate 62 g/ha, scale 0 to 10 (0 no effect, 10 complete control)
[5] = Preemergence, Rate 125 g/ha, scale 0 to 10, 0 is no effect, 10 is complete control
[6] = Preemergence, Rate 500 g/ha, scale of 0 to 10 where 0 is no effect and 10 is complete control
[7] = Rate 250 g/ha, Postemergence, scale of 0 to 10 where 0 is no effect and 10 is complete control

## CC(Cl)=CCn1c(=O)on(C(=O)N(c2ccc(Cl)cc2)C(C)C)c1=O [Compound 544]
blackgrass; [1]
  Blackgrass plant response rating: 0
blackgrass; [2]
  Blackgrass plant response rating: 0
blackgrass; [3]
  Plant response rating, Blackgrass: 3
blackgrass; [4]
  Blackgrass plant response rating: 0
blackgrass; [5]
  Blackgrass plant response rating: 0
blackgrass; Preemergence, Rate 250 g/ha
  Blackgrass plant response rating (0 to 10 scale): 2
blackgrass; [6]
  Blackgrass plant response rating: 6
blackgrass; [7]
  Plant response rating, Blackgrass: 0
Wild oat; [1]
  Wild oats plant response rating: 0
Wild oat; [2]
  Wild oats plant response rating: 0
Wild oat; [3]
  Plant response rating, Wild oats: 2
Wild oat; [4]
  Wild oats plant response rating: 0
Wild oat; [5]
  Wild oats plant response rating: 0
Wild oat; Preemergence, Rate 250 g/ha
  Wild oats plant response rating (0 to 10 scale): 2
Wild oat; [6]
  Wild oats plant response rating: 4
Wild oat; [7]
  Plant response rating, Wild oats: 0
bedstraw; [1]
  Bedstraw plant response rating: 0
bedstraw; [2]
  Bedstraw plant response rating: 2
bedstraw; [3]
  Plant response rating, Bedstraw: 3
bedstraw; [4]
  Bedstraw plant response rating: 0
bedstraw; [5]
  Bedstraw plant response rating: 2
bedstraw; Preemergence, Rate 250 g/ha
  Bedstraw plant response rating (0 to 10 scale): 7
bedstraw; [6]
  Bedstraw plant response rating: 9
bedstraw; [7]
  Plant response rating, Bedstraw: 2
soybean; [1]
  Soybean plant response rating: 0
soybean; [2]
  Soybean plant response rating: 2
soybean; [3]
  Plant response rating, Soybean: 2
soybean; [4]
  Soybean plant response rating: 0
soybean; [5]
  Soybean plant response rating: 0
soybean; Preemergence, Rate 250 g/ha
  Soybean plant response rating (0 to 10 scale): 0
soybean; [6]
  Soybean plant response rating: 0
soybean; [7]
  Plant response rating, Soybean: 0
crabgrass; [1]
  Crabgrass plant response rating: 0
crabgrass; [2]
  Crabgrass plant response rating: 8
crabgrass; [3]
  Plant response rating, Crabgrass: 9
crabgrass; [4]
  Crabgrass plant response rating: 9
crabgrass; [5]
  Crabgrass plant response rating: 9
crabgrass; Preemergence, Rate 250 g/ha
  Crabgrass plant response rating (0 to 10 scale): 10
crabgrass; [6]
  Crabgrass plant response rating: 10
crabgrass; [7]
  Plant response rating, Crabgrass: 8
cocklebur; [1]
  Cocklebur plant response rating: 3
cocklebur; [2]
  Cocklebur plant response rating: 3
cocklebur; [3]
  Plant response rating, Cocklebur: 3
cocklebur; [4]
  Cocklebur plant response rating: 0
cocklebur; Preemergence, Rate 250 g/ha
  Cocklebur plant response rating (0 to 10 scale): 0
cocklebur; [6]
  Cocklebur plant response rating: 0
cocklebur; [7]
  Plant response rating, Cocklebur: 3
corn; [1]
  Corn plant response rating: 0
corn; [2]
  Corn plant response rating: 0
corn; [3]
  Plant response rating, Corn: 0
corn; [4]
  Corn plant response rating: 0
corn; [5]
  Corn plant response rating: 0
corn; Preemergence, Rate 250 g/ha
  Corn plant response rating (0 to 10 scale): 0
corn; [6]
  Corn plant response rating: 0
corn; [7]
  Plant response rating, Corn: 0
Purple nutsedge; [1]
  Nutsedge plant response rating: 0
Purple nutsedge; [2]
  Nutsedge plant response rating: 0
Purple nutsedge; [3]
  Plant response rating, Nutsedge: 0
Purple nutsedge; [4]
  Nutsedge plant response rating: 0
Purple nutsedge; [5]
  Nutsedge plant response rating: 0
Purple nutsedge; Preemergence, Rate 250 g/ha
  Nutsedge plant response rating (0 to 10 scale): 0
Purple nutsedge; [6]
  Nutsedge plant response rating: 0
Purple nutsedge; [7]
  Plant response rating, Nutsedge: 0
velvetleaf; [1]
  Velvetleaf plant response rating: 0
velvetleaf; [2]
  Velvetleaf plant response rating: 0
velvetleaf; [3]
  Plant response rating, Velvetleaf: 0
velvetleaf; [4]
  Velvetleaf plant response rating: 0
velvetleaf; [5]
  Velvetleaf plant response rating: 0
velvetleaf; Preemergence, Rate 250 g/ha
  Velvetleaf plant response rating (0 to 10 scale): 0
velvetleaf; [6]
  Velvetleaf plant response rating: 0
velvetleaf; [7]
  Plant response rating, Velvetleaf: 0
Surinam grass; [1]
  B. signalgrass plant response rating: 0
Surinam grass; [2]
  B. signalgrass plant response rating: 0
Surinam grass; [3]
  Plant response rating, B. signalgrass: 3
Surinam grass; [4]
  B. signalgrass plant response rating: 3
Surinam grass; [5]
  B. signalgrass plant response rating: 3
Surinam grass; Preemergence, Rate 250 g/ha
  B. signalgrass plant response rating (0 to 10 scale, 0 is no effect, 10 is complete control): 6
Surinam grass; [6]
  B. signalgrass plant response rating: 8
Surinam grass; [7]
  Plant response rating, B. signalgrass: 0
wheat; [1]
  Wheat plant response rating: 0
wheat; [2]
  Wheat plant response rating: 0
wheat; [3]
  Plant response rating, Wheat: 0
wheat; [4]
  Wheat plant response rating: 0
wheat; [5]
  Wheat plant response rating: 0
wheat; Preemergence, Rate 250 g/ha
  Wheat plant response rating (0 to 10 scale): 0
wheat; [6]
  Wheat plant response rating: 0
wheat; [7]
  Plant response rating, Wheat: 0
morningglory; [1]
  Morningglory plant response rating: 3
morningglory; [2]
  Morningglory plant response rating: 4
morningglory; [3]
  Plant response rating, Morningglory: 10
morningglory; [4]
  Morningglory plant response rating: 0
morningglory; [5]
  Morningglory plant response rating: 0
morningglory; Preemergence, Rate 250 g/ha
  Morningglory plant response rating (0 to 10 scale): 0
morningglory; [6]
  Morningglory plant response rating: 0
morningglory; [7]
  Plant response rating, Morningglory: 10
Giant foxtail; [1]
  Giant foxtail plant response rating: 0
Giant foxtail; [2]
  Giant foxtail plant response rating: 0
Giant foxtail; [4]
  Giant foxtail plant response rating: 9
Giant foxtail; [5]
  Giant foxtail plant response rating: 10
Giant foxtail; Preemergence, Rate 250 g/ha
  Giant foxtail plant response rating (0 to 10 scale): 10
Giant foxtail; [6]
  Giant foxtail plant response rating: 10
Giant foxtail; [7]
  Plant response rating, Giant foxtail: 6
Sugar beet; [1]
  Sugarbeets plant response rating: 0
Sugar beet; [2]
  Sugarbeets plant response rating: 0
Sugar beet; [3]
  Plant response rating, Sugarbeets: 3
Sugar beet; [4]
  Sugarbeets plant response rating: 0
Sugar beet; [5]
  Sugarbeets plant response rating: 0
Sugar beet; Preemergence, Rate 250 g/ha
  Sugarbeets plant response rating (0 to 10 scale): 0
Sugar beet; [6]
  Sugarbeets plant response rating: 4
Sugar beet; [7]
  Plant response rating, Sugarbeets: 1
pigweed; [1]
  Redroot pigweed plant response rating: 0
pigweed; [2]
  Redroot pigweed plant response rating: 0
pigweed; [3]
  Plant response rating, Redroot pigweed: 2
pigweed; [4]
  Redroot pigweed plant response rating: 3
pigweed; [5]
  Redroot pigweed plant response rating: 3
pigweed; Preemergence, Rate 250 g/ha
  Redroot pigweed plant response rating (0 to 10 scale): 3
pigweed; [6]
  Redroot pigweed plant response rating: 10
pigweed; [7]
  Plant response rating, Redroot pigweed: 0
rape; [1]
  Rape plant response rating: 0
rape; [2]
  Rape plant response rating: 2
rape; [3]
  Plant response rating, Rape: 3
rape; [4]
  Rape plant response rating: 0
rape; [5]
  Rape plant response rating: 0
rape; Preemergence, Rate 250 g/ha
  Rape plant response rating (0 to 10 scale): 3
rape; [6]
  Rape plant response rating: 6
rape; [7]
  Plant response rating, Rape: 2
